# pIC50: −log10 of the molar value.
# Experiments:
# [1] = target: T1, Cyclin-dependent kinase-like 2 (Homo sapiens) (UniProt Q92772); test: Selectivity interaction (KinomeScan (DiscoverX)) EUB0001049a CDKL2; settings: at 1 µM
# T1 sequence (whole entry): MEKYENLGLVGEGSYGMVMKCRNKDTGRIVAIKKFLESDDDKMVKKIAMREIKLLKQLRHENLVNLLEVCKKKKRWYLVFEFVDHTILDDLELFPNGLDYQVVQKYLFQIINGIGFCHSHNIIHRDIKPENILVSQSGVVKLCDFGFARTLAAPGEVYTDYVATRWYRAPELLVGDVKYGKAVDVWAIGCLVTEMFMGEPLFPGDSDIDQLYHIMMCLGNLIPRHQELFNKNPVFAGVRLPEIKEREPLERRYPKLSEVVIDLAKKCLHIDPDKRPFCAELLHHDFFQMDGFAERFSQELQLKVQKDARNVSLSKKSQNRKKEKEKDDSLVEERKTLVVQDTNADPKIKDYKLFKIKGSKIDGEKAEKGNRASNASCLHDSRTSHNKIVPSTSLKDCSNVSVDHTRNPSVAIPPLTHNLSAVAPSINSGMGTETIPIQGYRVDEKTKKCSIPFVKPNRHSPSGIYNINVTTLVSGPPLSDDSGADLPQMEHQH
# [2] = target: T2, Ephrin type-B receptor 2 (Homo sapiens) (UniProt P29323); settings: at 10 µM
# T2 sequence (whole entry): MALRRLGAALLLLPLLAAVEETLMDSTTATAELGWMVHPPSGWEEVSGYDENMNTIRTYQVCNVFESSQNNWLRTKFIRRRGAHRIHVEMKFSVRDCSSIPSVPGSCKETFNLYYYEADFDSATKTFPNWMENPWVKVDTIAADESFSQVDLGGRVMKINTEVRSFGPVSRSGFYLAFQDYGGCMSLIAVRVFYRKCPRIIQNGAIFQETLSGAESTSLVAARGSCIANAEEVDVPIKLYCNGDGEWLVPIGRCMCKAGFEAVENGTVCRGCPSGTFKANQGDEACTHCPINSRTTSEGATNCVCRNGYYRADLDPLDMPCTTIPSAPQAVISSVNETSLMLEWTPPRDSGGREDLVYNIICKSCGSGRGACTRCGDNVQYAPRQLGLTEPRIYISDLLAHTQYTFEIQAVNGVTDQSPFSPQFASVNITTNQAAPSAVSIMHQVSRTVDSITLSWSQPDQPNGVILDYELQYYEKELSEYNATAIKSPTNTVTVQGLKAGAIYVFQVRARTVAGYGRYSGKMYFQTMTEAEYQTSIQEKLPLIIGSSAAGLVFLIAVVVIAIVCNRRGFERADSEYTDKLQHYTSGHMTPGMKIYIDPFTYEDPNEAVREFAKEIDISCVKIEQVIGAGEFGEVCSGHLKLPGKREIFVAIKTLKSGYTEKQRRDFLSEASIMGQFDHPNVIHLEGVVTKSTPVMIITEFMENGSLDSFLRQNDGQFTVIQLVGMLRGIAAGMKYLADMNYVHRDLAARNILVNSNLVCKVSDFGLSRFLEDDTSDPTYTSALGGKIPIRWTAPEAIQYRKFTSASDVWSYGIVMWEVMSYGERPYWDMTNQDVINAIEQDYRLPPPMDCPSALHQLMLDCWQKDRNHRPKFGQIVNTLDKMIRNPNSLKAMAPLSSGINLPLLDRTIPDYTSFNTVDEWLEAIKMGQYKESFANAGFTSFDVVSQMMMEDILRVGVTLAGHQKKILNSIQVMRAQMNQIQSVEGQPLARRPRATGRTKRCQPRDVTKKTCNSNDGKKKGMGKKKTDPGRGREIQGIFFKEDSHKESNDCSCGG
# [3] = target: Tyrosine-protein kinase Fes/Fps (Homo sapiens) (UniProt P07332); test: Selectivity interaction (Kinase panel (Invitrogen)) EUB0000639a FES; settings: at 200 nM
# [4] = tested on: Phosphatidylinositol 4,5-bisphosphate 3-kinase catalytic subunit alpha isoform (Homo sapiens), P42336 [I800L]; settings: at 10 µM
# [5] = target: Dual specificity protein kinase CLK2 (Homo sapiens, UniProt P49760); settings: at 10 µM
# [6] = target: T3, Receptor-type tyrosine-protein kinase FLT3 (Homo sapiens, UniProt P36888)
# T3 sequence (P36888 whole entry): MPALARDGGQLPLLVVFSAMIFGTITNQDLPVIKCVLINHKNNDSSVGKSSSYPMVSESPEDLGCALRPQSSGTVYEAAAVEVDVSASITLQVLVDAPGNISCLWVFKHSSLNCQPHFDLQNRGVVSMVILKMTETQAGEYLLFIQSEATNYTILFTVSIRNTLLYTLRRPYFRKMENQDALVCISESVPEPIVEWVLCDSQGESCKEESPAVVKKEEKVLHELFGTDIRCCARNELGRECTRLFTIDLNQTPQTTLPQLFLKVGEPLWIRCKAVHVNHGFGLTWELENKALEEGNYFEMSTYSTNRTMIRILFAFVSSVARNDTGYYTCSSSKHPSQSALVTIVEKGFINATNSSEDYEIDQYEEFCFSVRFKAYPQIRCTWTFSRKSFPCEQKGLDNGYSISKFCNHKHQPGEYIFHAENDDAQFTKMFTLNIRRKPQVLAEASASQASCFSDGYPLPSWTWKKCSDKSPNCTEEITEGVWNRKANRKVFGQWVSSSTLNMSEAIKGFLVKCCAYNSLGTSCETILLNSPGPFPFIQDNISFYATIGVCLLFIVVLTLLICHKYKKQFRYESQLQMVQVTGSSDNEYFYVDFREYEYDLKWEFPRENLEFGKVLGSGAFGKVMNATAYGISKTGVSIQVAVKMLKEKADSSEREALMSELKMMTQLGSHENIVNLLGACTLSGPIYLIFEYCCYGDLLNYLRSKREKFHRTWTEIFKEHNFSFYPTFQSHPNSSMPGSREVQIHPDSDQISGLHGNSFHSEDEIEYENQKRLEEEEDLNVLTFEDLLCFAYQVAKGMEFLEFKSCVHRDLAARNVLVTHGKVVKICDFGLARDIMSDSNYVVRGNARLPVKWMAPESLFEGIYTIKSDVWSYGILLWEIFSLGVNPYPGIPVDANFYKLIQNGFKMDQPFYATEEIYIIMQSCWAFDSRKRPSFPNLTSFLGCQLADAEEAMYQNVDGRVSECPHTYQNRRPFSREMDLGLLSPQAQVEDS
# [7] = target: Serine/threonine-protein kinase 32A (Homo sapiens) (UniProt Q8WU08); test: Selectivity interaction (KinomeScan (DiscoverX)) EUB0001619a STK32A; settings: at 1 µM
# Chain of Serine/threonine-protein kinase 32A (Homo sapiens) (Q8WU08 whole entry): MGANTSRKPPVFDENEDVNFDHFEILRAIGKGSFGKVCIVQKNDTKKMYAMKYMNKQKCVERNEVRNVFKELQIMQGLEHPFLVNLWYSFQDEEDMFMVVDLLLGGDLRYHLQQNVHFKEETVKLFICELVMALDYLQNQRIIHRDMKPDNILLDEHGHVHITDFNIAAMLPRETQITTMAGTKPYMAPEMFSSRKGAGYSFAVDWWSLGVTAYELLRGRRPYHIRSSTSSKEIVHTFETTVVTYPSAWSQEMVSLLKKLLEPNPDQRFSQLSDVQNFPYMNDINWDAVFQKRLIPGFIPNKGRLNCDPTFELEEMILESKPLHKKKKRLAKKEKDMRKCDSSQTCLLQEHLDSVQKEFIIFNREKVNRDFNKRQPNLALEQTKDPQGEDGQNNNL
# Chain of Dual specificity protein kinase CLK2 (P49760 whole entry, looked up): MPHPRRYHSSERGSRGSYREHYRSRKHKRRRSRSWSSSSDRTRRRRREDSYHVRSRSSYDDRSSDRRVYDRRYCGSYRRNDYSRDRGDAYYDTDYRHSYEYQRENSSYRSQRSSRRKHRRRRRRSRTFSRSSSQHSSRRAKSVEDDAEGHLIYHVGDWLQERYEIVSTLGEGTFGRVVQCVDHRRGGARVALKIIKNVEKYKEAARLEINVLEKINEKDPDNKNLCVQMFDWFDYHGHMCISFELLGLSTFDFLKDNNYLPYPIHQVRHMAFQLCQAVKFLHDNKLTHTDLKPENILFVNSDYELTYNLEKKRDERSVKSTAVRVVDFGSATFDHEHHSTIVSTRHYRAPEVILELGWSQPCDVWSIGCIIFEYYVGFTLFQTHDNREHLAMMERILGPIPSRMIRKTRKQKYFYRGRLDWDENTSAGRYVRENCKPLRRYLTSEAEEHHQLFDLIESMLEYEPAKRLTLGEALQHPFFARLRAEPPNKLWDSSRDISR
# Chain of Phosphatidylinositol 4,5-bisphosphate 3-kinase catalytic subunit alpha isoform (Homo sapiens), P42336 [I800L] (P42336 whole entry I800L, canonical isoform): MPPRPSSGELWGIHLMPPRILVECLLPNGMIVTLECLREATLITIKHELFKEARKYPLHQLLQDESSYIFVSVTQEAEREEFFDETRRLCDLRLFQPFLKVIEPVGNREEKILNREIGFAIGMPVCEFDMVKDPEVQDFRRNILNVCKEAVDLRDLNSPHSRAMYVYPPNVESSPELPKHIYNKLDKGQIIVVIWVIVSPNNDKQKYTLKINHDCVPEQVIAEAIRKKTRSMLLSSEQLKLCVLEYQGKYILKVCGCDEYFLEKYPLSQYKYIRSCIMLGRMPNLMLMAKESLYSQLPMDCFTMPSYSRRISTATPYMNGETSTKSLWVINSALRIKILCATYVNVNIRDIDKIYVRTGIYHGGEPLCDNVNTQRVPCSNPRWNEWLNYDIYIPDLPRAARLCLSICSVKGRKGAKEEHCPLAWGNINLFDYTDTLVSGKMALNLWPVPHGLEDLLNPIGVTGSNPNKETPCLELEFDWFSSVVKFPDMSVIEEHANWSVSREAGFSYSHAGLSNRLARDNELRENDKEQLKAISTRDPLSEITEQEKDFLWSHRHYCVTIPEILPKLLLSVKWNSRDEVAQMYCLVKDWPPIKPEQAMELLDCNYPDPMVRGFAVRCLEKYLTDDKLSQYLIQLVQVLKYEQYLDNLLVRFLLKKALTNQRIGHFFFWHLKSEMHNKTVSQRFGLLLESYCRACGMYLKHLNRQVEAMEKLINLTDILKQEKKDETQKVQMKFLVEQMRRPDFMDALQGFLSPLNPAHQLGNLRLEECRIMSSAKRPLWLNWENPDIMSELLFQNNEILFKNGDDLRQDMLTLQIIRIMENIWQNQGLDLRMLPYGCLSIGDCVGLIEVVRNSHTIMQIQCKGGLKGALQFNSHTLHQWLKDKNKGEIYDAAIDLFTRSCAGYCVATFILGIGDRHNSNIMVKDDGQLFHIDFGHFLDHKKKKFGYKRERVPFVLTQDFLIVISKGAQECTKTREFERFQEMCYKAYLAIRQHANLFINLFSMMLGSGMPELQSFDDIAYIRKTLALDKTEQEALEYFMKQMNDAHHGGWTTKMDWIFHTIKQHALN
# Chain of Tyrosine-protein kinase Fes/Fps (Homo sapiens) (P07332 whole entry, canonical isoform): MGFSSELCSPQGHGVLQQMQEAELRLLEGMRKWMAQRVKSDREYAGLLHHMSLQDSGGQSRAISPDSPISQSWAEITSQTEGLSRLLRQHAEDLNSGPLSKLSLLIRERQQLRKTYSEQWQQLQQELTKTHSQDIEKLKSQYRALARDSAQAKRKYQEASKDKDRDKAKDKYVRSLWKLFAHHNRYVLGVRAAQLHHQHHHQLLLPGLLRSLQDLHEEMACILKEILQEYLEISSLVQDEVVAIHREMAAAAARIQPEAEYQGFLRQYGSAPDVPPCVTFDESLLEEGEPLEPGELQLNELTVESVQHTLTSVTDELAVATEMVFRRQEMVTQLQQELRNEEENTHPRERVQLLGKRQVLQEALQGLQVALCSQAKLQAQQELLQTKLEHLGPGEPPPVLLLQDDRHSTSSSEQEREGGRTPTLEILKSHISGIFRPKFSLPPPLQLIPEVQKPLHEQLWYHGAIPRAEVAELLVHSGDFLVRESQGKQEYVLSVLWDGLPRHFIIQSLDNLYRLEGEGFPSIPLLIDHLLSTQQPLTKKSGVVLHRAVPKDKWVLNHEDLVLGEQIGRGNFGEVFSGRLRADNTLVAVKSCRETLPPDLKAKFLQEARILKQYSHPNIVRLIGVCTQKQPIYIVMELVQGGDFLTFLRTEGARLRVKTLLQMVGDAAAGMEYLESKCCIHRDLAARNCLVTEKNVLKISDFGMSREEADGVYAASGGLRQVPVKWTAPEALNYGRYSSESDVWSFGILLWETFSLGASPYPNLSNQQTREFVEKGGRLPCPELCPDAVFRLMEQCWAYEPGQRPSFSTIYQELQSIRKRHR
structure (smiles),measurement,setting,value
COc1cc(Nc2nc(C)cc(-c3cnn4nc(OC)ccc34)n2)cc(C(F)(F)F)c1,% of control,[1],100%
CCN(CC)CCCCNc1ncc2cc(-c3cc(OC)cc(OC)c3)c(NC(=O)NC(C)(C)C)nc2n1,% of control,[2],100%
CC[C@@H]1[C@H](F)C(=O)N[C@@H]1COc1nccc2cc(C(N)=O)c(OC)cc12 [ZIMLOVISERTIB],% of inhibition,[3],1.51%
COCC(=O)NC/C=C/c1ccc2ncnc(Nc3ccc(Oc4ccc(C)nc4)c(C)c3)c2c1 [CP-724714],% of control,[4],100%
Cc1cc([C@@H](C)Nc2ccccc2C(=O)O)c2nc(N3CCOCC3)cc(=O)n2c1 [AZD-6482],% of control,[5],70%
CCc1cccc(CC)c1NC(=O)c1nn(C)c2c1CCc1cnc(Nc3ccc(C(=O)NC4CCN(C)CC4)cc3OC(F)(F)F)nc1-2,pIC50,[6],< 5.00
N#Cc1cccc(-c2c[nH]c3ncnc(N4CCOCC4)c23)c1,% of control,[7],100%

# Source: ChEMBL document CHEMBL5465560, “Selectivity Literature for EUbOPEN Chemogenomic Library” (2024)
